Several values for one entry are separate records, joined by “and”; a condition that tells them apart may be missing. Equal values may be shown once. Where a name gives a salt, the structure may show the parent alone. Read-outs that look alike come from different tables or passages of the source. Non-standard residues stand in square brackets, D forms with d. Residues, ends and D or L forms follow the SMILES beside them. αMeP = C[C@@]1(C(=O)O)CCCN1

The test system of the test is BDNF-induced nuclear Arc expression in primary cortical neurons. Description: Chemogenomic screen: high-content image-based assay of BDNF-induced nuclear Arc expression (96-well). It is filed as cell-based, mouse. As to the method: To increase the throughput of our pharmacological screening for modulators of Arc, the above mentioned assay was adapted to cultures of mouse primary cortical neurons in 96-well plates.
All 319 compounds were initially tested at a final concentration of 16.7 µM with three biological replicates.
Screening of compounds in the chemogenomic library was carried out using DIV13 primary forebrain cortical neurons cultured on poly-L-lysine/laminin-coated 96-well plates (Ibidi USA, Madison, WI). Cells were seeded at a density of 30,000 cells per well and treated with the compound library and BDNF according to the experimental design presented in Fig. 3a. After experimental treatment, cells were processed for Arc and acetyl-H3K9 immunocytochemistry according to the protocol described above. Both antigens (Arc and acetyl-H3K9) were imaged using an IN Cell Analyzer 6000 imaging system and a ×40 objective. […] High-throughput quantification of nuclear Arc immunofluorescence signal was performed in a similar fashion than the low-throughput procedure described above but with the exception that acetyl-H3K9 was used as a nuclear mask to guide the automated quantification of nuclear Arc immunofluorescence signal.

Where [1] appears, read: chemogenomic (SMART) screen, BDNF-induced nuclear Arc expression, primary cortical neurons, BDNF control 19.5.
Setting [2] is: nuclear Arc-positive cells relative to DMSO + BDNF control, negative values = decrease.
The mark [3] stands for this setting: BDNF-induced nuclear Arc expression, primary cortical neurons, chemogenomic screen.
Where [4] appears, read: nuclear Arc-positive cells relative to DMSO control (BDNF), negative = decrease.

Regarding `CCN(CC)C(C)CN1c2ccccc2Sc2ccccc21` (centres unmarked) [Ethopropazine], under setting [1], the “Percentage of cell with nuclear Arc immunostaining above 2σ threshold” value (“Percentage of cell” below) is reported as 27.2%. Moreover, the “Fold-change — Normalized to DMSO control (BDNF)” value (“Fold-change — Normalized” below) under setting [2] came out at 1.4 fold.

For `Nc1cccc(-c2cc3c(Oc4cccc(O)c4)ncnc3[nH]2)c1` [TWS119], the “Percentage of cell” value under setting [1] is given as 33.9%. The “Fold-change — Normalized” value under setting [2] stood at 1.7 fold.

On to `CCN1CCCC1CNC(=O)c1cc(S(=O)(=O)CC)c(N)cc1OC` (centres unmarked) [Amisulpride], for which the “Percentage of cell” value under setting [1] was determined as 24.6%. Besides, under setting [2], the “Fold-change — Normalized” value is 1.3 fold.

Regarding `CNC(=O)[C@@H](Cc1ccccc1)N(C)C(=O)[C@@H](Cc1ccc2ccccc2c1)N(C)C(=O)/C=C/CC(C)(C)N` [Tabimorelin], the “Percentage of cell” value under setting [3] is on record as 7.1%.

With `C/C=C1\[C@H]2C=C(C)C[C@]1(N)c1ccc(=O)[nH]c1C2` [Huperzine A], the “Percentage of cell” value under setting [1] was 14.8%.

As to `N#Cc1ccccc1-c1cc(-c2ccccn2)cn(-c2ccccc2)c1=O` [Perampanel], the “Percentage of cell” value stood at 12.4%.

For `Cn1c(=O)c2[nH]cnc2n(C)c1=O` [Aminophylline], under setting [1], the “Percentage of cell” value came to 23.1%. The “Fold-change — Normalized” value under setting [2] was 1.2 fold.

For the compound `O=C(O)CNC(=O)c1c(O)c2ccccc2n(Cc2ccccc2)c1=O` [IOX2], under setting [1], the “Percentage of cell” value was found to be 45.4%. Also, the “Fold-change — Normalized” value under setting [2] was 2.3 fold.

`CCOc1ccccc1OC(c1ccccc1)C1CNCCO1` (centres unmarked) [Reboxetine]: the “Percentage of cell” value worked out at 8.6%.

In the case of `C#CCN[C@@H]1CCc2ccccc21` [Rasagiline], the “Percentage of cell” value under setting [1] was found to be 14.8%.

Take `Clc1ccc(C23CNCC2C3)cc1Cl` (centres unmarked) [DOV-216,303]: the “Percentage of cell” value was 6.5%. Also, under setting [4], the “Fold-change — Normalized” value is listed as -3.0 fold.

Regarding `O=C(O)[C@H]1O[C@@H](Oc2cc3oc(-c4ccccc4)cc(=O)c3c(O)c2O)[C@H](O)[C@@H](O)[C@@H]1O` [Baicalin], the “Percentage of cell” value under setting [1] is recorded as 34.6%. Under setting [2], the “Fold-change — Normalized” value worked out at 1.8 fold.

Take `NS(=O)(=O)Cc1noc2ccccc12` [Zonisamide]: the “Percentage of cell” value under setting [3] came to 9.8%.

For the compound `CN(C)CCC(c1ccc(Cl)cc1)c1ccccn1` (centres unmarked) [Chlorphenamine], the “Percentage of cell” value under setting [1] was determined as 31.0%. Under setting [2], the “Fold-change — Normalized” value was 1.6 fold.

As for `CCN(CC)CCOC(=O)c1ccc(N)cc1` [Procaine hydrochloride], under setting [1], the “Percentage of cell” value stood at 37.1%. The “Fold-change — Normalized” value under setting [2] turned out to be 1.9 fold.

For the compound `OCCN1CCN(CCCN2c3ccccc3Sc3ccc(C(F)(F)F)cc32)CC1` [Fluphenazine], under setting [3], the “Percentage of cell” value amounted to 0.3%.

Take `Cl.O=C(O)C1CCCN(CCC=C(c2ccccc2)c2ccccc2)C1` (centres unmarked) [SKF 89976A hydrochloride]: the “Percentage of cell” value is given as 21.6%. Also, under setting [2], the “Fold-change — Normalized” value was 1.1 fold.

As to `O=C(O)c1ccc(O)c2ncccc12` [IOX1], under setting [1], the “Percentage of cell” value is 44.2%. Also, under setting [2], the “Fold-change — Normalized” value is 2.3 fold.

`C[C@]12N[C@H](Cc3ccccc31)c1ccccc12` [Dizocilpine]: the “Percentage of cell” value worked out at 21.2%. Besides, the “Fold-change — Normalized” value under setting [2] came out at 1.1 fold.

Regarding Eburnamonine (-), under setting [1], the “Percentage of cell” value worked out at 18.5%. In addition, under setting [2], the “Fold-change — Normalized” value was -1.1 fold.

Regarding `OC(CCN1CCCCC1)(c1ccccc1)C1CC2C=CC1C2` (centres unmarked) [Biperiden], the “Percentage of cell” value under setting [1] is 13.3%.

Regarding LM22A-4, the “Percentage of cell” value under setting [1] is given as 14.0%. Besides, the “Fold-change — Normalized” value under setting [2] is reported as -1.4 fold.

For the compound `Oc1ccc(/C=C/c2cc(O)cc(O)c2)cc1` [Resveratrol], the “Percentage of cell” value under setting [1] is 36.0%. Besides, under setting [2], the “Fold-change — Normalized” value is on record as 1.8 fold.

For the compound `CCCC(CCC)C(N)=O` [Valpromide], the “Percentage of cell” value under setting [1] came to 19.8%. Also, under setting [2], the “Fold-change — Normalized” value stood at 1.0 fold.

Consider `COc1cc(N)c(Cl)cc1C(=O)NC1CCN(Cc2ccccc2)CC1` [Clebopride], for which, under setting [1], the “Percentage of cell” value is given as 25.8%. Further, the “Fold-change — Normalized” value under setting [2] is listed as 1.3 fold.

Regarding `Cc1cc(-c2ccccc2)nnc1NCCN1CCOCC1` [Minaprine], under setting [1], the “Percentage of cell” value stood at 21.8%. Besides, the “Fold-change — Normalized” value under setting [2] turned out to be 1.1 fold.

`CCN[C@H]1C[C@H](C)S(=O)(=O)c2sc(S(N)(=O)=O)cc21` [Dorzolamide]: under setting [3], the “Percentage of cell” value is 7.1%.

Turning to `Cc1nc(C(=O)NCC(=O)O)c(O)c2ccc(Oc3ccccc3)cc12` [FG-4592], the “Percentage of cell” value under setting [1] was determined as 26.8%. The “Fold-change — Normalized” value under setting [2] worked out at 1.4 fold.

As to Dihydroergotoxine mesylate, the “Percentage of cell” value under setting [1] is listed as 24.3%. In addition, under setting [2], the “Fold-change — Normalized” value is recorded as 1.2 fold.

For `Nc1nnc(-c2cccc(Cl)c2Cl)c(N)n1` [Lamotrigine], under setting [3], the “Percentage of cell” value is given as 4.8%.

With `CN(C)CCCN1c2ccccc2Sc2ccccc21` [Promazine], under setting [3], the “Percentage of cell” value was 9.7%.

For `CN1CCC(=C2c3ccccc3CC(=O)c3sccc32)CC1` [Ketotifen], the “Percentage of cell” value under setting [1] is on record as 12.3%.

With `O=C(CCCN1CCC2(CC1)C(=O)NCN2c1ccccc1)c1ccc(F)cc1` [Spiperone], the “Percentage of cell” value under setting [1] was determined as 23.6%. For the same compound, the “Fold-change — Normalized” value under setting [2] stood at 1.2 fold.

With `CCOC(=O)c1ncn2c1CN(C)C(=O)c1cc(F)ccc1-2` [Flumazenil], the “Percentage of cell” value under setting [1] was 32.1%. For the same compound, under setting [2], the “Fold-change — Normalized” value came out at 1.6 fold.

On to `O=C(O)C(Cc1c[nH]c2ccccc12)N1C(=O)c2ccccc2C1=O` (centres unmarked) [RG-108], for which the “Percentage of cell” value was 35.1% and 27.5%. Besides, the “Fold-change — Normalized” value under setting [2] is 1.8 fold and 1.4 fold.

With `C[C@@]1(C(=O)N[C@@H](CCC(=O)O)C(=O)O)CCCN1C(=O)CN` [NNZ-2566] (H-Gly-[αMeP]-Glu-OH), the “Percentage of cell” value under setting [3] is reported as 6.7%. The “Fold-change — Normalized” value under setting [4] is given as -2.9 fold.

For `CN(C)CCCC1(c2ccc(F)cc2)OCc2cc(C#N)ccc21` (centres unmarked) [Citalopram], the “Percentage of cell” value under setting [3] worked out at 6.1%.

Regarding `C=C[C@@]1(C)CC(=O)[C@]2(O)[C@@]3(C)[C@@H](O)CCC(C)(C)[C@@H]3[C@H](OC(=O)CCN(C)C)[C@H](OC(C)=O)[C@@]2(C)O1.Cl` [Colforsin dapropate hydrochloride], the “Percentage of cell” value under setting [1] is on record as 21.7%. Also, under setting [2], the “Fold-change — Normalized” value worked out at 1.1 fold.

Take `CCN(CC)CCOCCOC(=O)C1(c2ccccc2)CCCC1` [Carbetapentane]: the “Percentage of cell” value under setting [1] came out at 17.2%.

On to `C[N+](C)(C)C[C@H](O)CC(=O)[O-]` [Levocarnitine], for which the “Percentage of cell” value under setting [3] turned out to be 10.1%.

As for `CCC(C)C(CC)C(N)=O` (centres unmarked) [Valnoctamide], under setting [1], the “Percentage of cell” value is 24.6%. For the same compound, under setting [2], the “Fold-change — Normalized” value is listed as 1.3 fold.

As for `Cc1c(-c2ccccc2)oc2c(C(=O)OCCN3CCCCC3)cccc2c1=O` [Flavoxate], under setting [3], the “Percentage of cell” value came to 3.1%.

On to `O=C(NCCN1CCOCC1)c1ccc(Cl)cc1` [Moclobemide], for which the “Percentage of cell” value under setting [3] stood at 8.9%.

On to `Cc1ccsc1C(=CCCN1CCC[C@@H](C(=O)O)C1)c1sccc1C` [Tiagabine], for which, under setting [3], the “Percentage of cell” value is recorded as 7.4%.

`CC1=NN=C(c2ccc(N)cc2)c2cc3c(cc2C1)OCO3` [GYKI-52466]: the “Percentage of cell” value under setting [1] is recorded as 12.0%.

`COc1ccc(CNC(=O)Nc2ncc([N+](=O)[O-])s2)cc1` [AR-A014418]: the “Percentage of cell” value under setting [3] was 4.9%. Besides, under setting [4], the “Fold-change — Normalized” value was -4.0 fold.

Consider Bromocryptine, for which the “Percentage of cell” value was determined as 45.0%. Besides, the “Fold-change — Normalized” value under setting [2] is recorded as 2.3 fold.

Turning to `COc1ccc2c3c1O[C@H]1C[C@@H](O)C=C[C@@]31CCN(C)C2` [Galantamine], the “Percentage of cell” value is on record as 4.2%.

On to `CN(C)CCCN1c2ccccc2Sc2ccc(Cl)cc21` [Chlorpromazine], for which the “Percentage of cell” value under setting [3] came to 0.0%.

Consider `O=C(COc1ccc(Cl)cc1)N1CCN(Cc2ccc3c(c2)OCO3)CC1` [Fipexide], for which the “Percentage of cell” value under setting [1] turned out to be 41.7%. In addition, the “Fold-change — Normalized” value under setting [2] is recorded as 2.1 fold.

As to `O=C1[C@H]2CCCC[C@H]2C(=O)N1CCCCN1CCN(c2nsc3ccccc23)CC1` [Perospirone], the “Percentage of cell” value under setting [1] was determined as 17.9%.

The values are drawn from PMC5698418 (Nature Communications, 2017).
